In general, IC50 refers to the concentration that inhibits the measured activity by half.

The record followed here is publication PMC12366525, “Characterization of allosteric modulators that disrupt androgen receptor co-activator protein-protein interactions to alter transactivation–Drug leads for metastatic castration resistant prostate cancer” (SLAS discovery : advancing life sciences R & D, 2023).

Some results are limits rather than exact numbers.

In one experiment the target is T1, AR-LBD (Homo sapiens, UniProt P10275).
T1 construct: The pET28a-AR-LBD (622–919) construct [78] was a gift; made in house
T1 sequence (P10275 622-919): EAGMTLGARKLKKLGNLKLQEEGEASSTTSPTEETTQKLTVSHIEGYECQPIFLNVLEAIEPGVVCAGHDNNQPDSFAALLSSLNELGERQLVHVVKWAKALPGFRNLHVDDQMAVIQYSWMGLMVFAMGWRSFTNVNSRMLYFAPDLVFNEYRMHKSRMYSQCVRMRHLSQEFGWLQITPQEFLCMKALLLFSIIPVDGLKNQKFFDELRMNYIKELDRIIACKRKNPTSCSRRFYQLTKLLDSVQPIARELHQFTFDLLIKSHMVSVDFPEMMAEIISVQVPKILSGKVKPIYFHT
Description: H^3-DHT radioligand competition binding assay. The note with it: 10 nM H^3-DHT, recombinant His6-AR-LBD. The procedure:
The His6-AR-LBD H^3-DHT competition binding assay has been described previously. Briefly, 96-well Cu^2+-coated plates (ThermoFisher) were incubated overnight at 4 °C with 5 μg per well His6-AR-LBD in 100 μL of PBS. Unbound His6-AR-LBD was aspirated, the plate was washed 3 × with 100 μL of 0.05% Tween 20 in PBS and then blocked with 100 μL of 1 mg/mL BSA in PBS for 1 h. After three more washes with 100 μL of PBS and 0.05% Tween 20, 40 μL of PBS was added to wells followed by 5 μL each of diluted compounds and 100 nM H^3-DHT transferred into the wells using a Matrix pipettor. Compounds were tested between 0.098 to 50 μM in the presence of 10 nM H^3-DHT. After 1 h, compounds and H^3-DHT were aspirated and washed 3 × with 0.05% Tween 20 in PBS; 100 μL of Microscint™−20 micro-scintillation cocktail buffer (Perkin Elmer, Waltham, MA) was added to each well, plates were sealed with adhesive plastic covers; and the counts per minute (CPMs) were captured in a TopCount NXT microtiter plate reader (Perkin Elmer, Waltham, MA).
In general terms: In a radioligand displacement assay an active substance lowers the binding of a labelled ligand.

For the next experiment, the system named is PSA. Description: Western blot of PSA expression in C4–2 cells. It is filed as cell-based, human. The settings on record: for C4-2 cell lysates PSA Western Blot, relative to DMSO (100%): 10 nM DHT 24 h, 20 μM compound 3 h pre-exposure; for Effect on endogenous and DHT-enhanced PSA expression and secretion: C4–2 cells, 20 μM for 3 h prior to DMSO or 10 nM DHT, 24 h. The procedure: Cell lysate protein concentrations were determined in a bicinchoninic acid (BCA) assay. Equal amounts of cell protein were mixed with SDS-PAGE sample buffer and placed in a heat block at 100 °C for 5 min. The protein constituents of C4–2 cells were separated by SDS-PAGE on 10% separating gels, transferred to nitrocellulose membranes and western blots were probed overnight at 4 °C with a 1:1000 dilution of a rabbit anti-hPSA (Cell Signaling, Danvers, MA) primary antibody in Tris-buffered saline (TBS) Tween 20 (TBST) containing 5% non-fat milk. Membranes were washed 3x in TBST for 10 min, then incubated for 1 h at room temperature with a 1:10,000 dilution of the goat anti-rabbit IgG horse radish peroxidase (HRP) conjugated secondary antibody (Invitrogen, Carlsbad, CA) in TBST containing 5% non-fat milk. Western blots were then washed 3x in TBST and developed with Pierce enhanced chemiluminescence (ECL) western blotting substrate (Thermo Fisher Scientific, Waltham, MA). Images of western blot ECL bands were acquired on an iBright 1500 imaging system (Thermo Fisher Scientific, Waltham, MA) and quantified by iBright image analysis software.
Background: Immunoblotting shows a protein as a band on a membrane.

For a further experiment, the target named is T2, AR (Homo sapiens, UniProt P10275, T878A).
T2 construct: DHT-induced full length AR directed TA; endogenous in cells; host or cells: C4–2 castration resistant prostate cancer cells
T2 sequence (P10275 1-920 T878A): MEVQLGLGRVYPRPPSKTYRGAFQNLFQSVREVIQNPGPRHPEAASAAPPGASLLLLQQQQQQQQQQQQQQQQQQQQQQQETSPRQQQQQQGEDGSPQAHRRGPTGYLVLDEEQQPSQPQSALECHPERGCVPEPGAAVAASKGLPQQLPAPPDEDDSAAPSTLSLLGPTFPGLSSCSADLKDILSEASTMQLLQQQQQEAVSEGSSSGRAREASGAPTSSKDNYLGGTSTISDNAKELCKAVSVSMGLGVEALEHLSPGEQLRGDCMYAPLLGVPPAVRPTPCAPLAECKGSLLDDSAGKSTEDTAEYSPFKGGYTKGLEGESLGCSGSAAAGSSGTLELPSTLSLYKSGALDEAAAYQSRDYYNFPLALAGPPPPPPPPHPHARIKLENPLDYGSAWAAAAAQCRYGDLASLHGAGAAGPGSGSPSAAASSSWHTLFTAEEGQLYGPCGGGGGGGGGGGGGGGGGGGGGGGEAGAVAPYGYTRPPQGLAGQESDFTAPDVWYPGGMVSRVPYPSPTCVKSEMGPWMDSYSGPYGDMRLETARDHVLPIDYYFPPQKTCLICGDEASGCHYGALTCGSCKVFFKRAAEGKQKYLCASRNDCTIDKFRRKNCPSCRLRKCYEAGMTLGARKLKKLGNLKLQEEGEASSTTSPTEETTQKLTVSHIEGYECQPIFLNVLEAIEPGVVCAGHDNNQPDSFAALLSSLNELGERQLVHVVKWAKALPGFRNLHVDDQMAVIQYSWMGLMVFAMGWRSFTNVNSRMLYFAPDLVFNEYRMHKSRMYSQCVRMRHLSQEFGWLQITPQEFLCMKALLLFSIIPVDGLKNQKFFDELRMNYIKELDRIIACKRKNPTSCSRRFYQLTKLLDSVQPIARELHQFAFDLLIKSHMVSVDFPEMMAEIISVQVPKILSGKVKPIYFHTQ
Put plainly: AlphaScreen cellular thermal shift assay (CETSA) for AR in C4–2 cells. It is filed as cell-based. The note with it: for Effect on AR thermal stability, AlphaScreen CETSA: 1 h at 37 °C prior to heat shock at 46 °C, hits and enzalutamide 20 μM, DHT 10 nM; for Effect on maximum efficacy of DHT-enhanced AR thermal stabilization / Right shift of the DHT EC50 for AR thermal stabilization: 20 or 50 μM compound pre-treatment. The procedure:
Mouse anti-hAR (BD Biosciences, San Jose, CA) and rabbit anti-hAR (MilliporeSigma, Burlington, MA) were diluted 1:330 and 1:1000 fold respectively in PBS containing 0.5 mg/mL BSA and 4 μL of the combined diluted AR antibody pair were added to 4 μL of the cell lysate supernatant in a 384-well plate and incubated in the dark for 30 min at room temperature. To each well of the 384-well plate 4 μL of a combined solution of anti-mouse IgG Alpha Donor and anti-rabbit IgG (Fc specific) AlphaLISA Acceptor beads suspended in 1x lysis buffer was added to yield a final donor and acceptor bead concentrations of 40 μg/mL and 10 μg/mL respectively.
(In general: Bead proximity is the source of the signal in Alpha formats.)

In the case of `Cc1ccccc1-c1cc(O)c2c(c1)CN(c1nc(C(N)=O)cs1)CCO2` [S1–1], the IC50 at AR-LBD was found to be 43.7 µM. For the same molecule, in the experiment with PSA, the “C4-2 cell lysates PSA Western Blot, relative to DMSO (100%)” value is recorded as 22.1%; the “Effect on endogenous and DHT-enhanced PSA expression and secretion” value is “substantially reduced both endogenous and DHT-enhanced PSA expression and secretion”. Besides, the “Effect on AR thermal stability, AlphaScreen CETSA” value (shortened to “Effect on AR thermal stability”) at AR is reported as “did not stabilize AR in the AlphaScreen assay but blocked DHT-enhanced AR thermal stabilization”.

As to `Cc1ccccc1-c1cc(O)c2c(c1)CN(c1nccs1)CCO2` [S1–3], the IC50 on AR-LBD is > 100 µM.

On to `Cc1nsc(NC(=O)N2CCC(Sc3ccccc3C)CC2)n1` [S2–6], for which, in the experiment on PSA, the “C4-2 cell lysates PSA Western Blot, relative to DMSO (100%)” value came out at 0.9%; the “Effect on endogenous and DHT-enhanced PSA expression and secretion” value was “substantially reduced both endogenous and DHT-enhanced PSA expression and secretion”. Besides, at AR, the “Effect on maximum efficacy of DHT-enhanced AR thermal stabilization” value is listed as “reduced the maximum efficacy of DHT-enhanced AR thermal stabilization”; the “Right shift of the DHT EC50 for AR thermal stabilization” value was > 10 fold; the “Effect on AR thermal stability” value was “did not stabilize AR in the AlphaScreen assay but blocked DHT-enhanced AR thermal stabilization”.

Consider `Cc1c(-c2ccccc2F)[nH]c2ccc(CNC(=O)CCc3cn[nH]c3)cc12` [S3–11], for which, in the experiment on PSA, the “C4-2 cell lysates PSA Western Blot, relative to DMSO (100%)” value is listed as 22.8%; the “Effect on endogenous and DHT-enhanced PSA expression and secretion” value was “substantially reduced both endogenous and DHT-enhanced PSA expression and secretion”. In addition, on AR, the “Effect on maximum efficacy of DHT-enhanced AR thermal stabilization” value is “at 50 μM reduced the maximum efficacy of DHT”; the “Right shift of the DHT EC50 for AR thermal stabilization” value is reported as ≥ 10 fold; the “Effect on AR thermal stability” value is reported as “did not stabilize AR in the AlphaScreen assay but blocked DHT-enhanced AR thermal stabilization”.

Consider `Cc1c(-c2ccccc2F)[nH]c2ccc(CNC(=O)c3ccc(CO)o3)cc12` [S3–14], for which, at AR-LBD, the IC50 was 62.9 µM.
